Data from PubChem BioAssay AID504746 (National Center for Advancing Translational Sciences (NCATS), 2011).

Tested on: mouse liver microsomes + NADPH, LC-MS/MS % remaining
Assay: Inhibitors of N370S glucocerebrosidase as a Potential Chaperone Treatment of Gaucher Disease: Metabolic Stability Profile with NADPH
Conditions: at 5 µM; higher = more stable (active)
Excerpt: Glucocerebrosidase (GC) catalyzes the hydrolysis of beta-glucocerebroside to glucose and ceramide in lysosomes. Mutations in the glucocerebrosidase gene result in Gaucher disease, an autosomal recessive lysosomal storage disorder. Many of the mutations encountered in patients with Gaucher disease are missense alterations that may cause misfolding, decreased stability and/or mistrafficking of this lysosomal protein. […] These inhibitors include iminosugar analogs and three non-iminosugar inhibitors identified from a previous HTS of 62,000 compounds with the wild type recombinant enzyme. After further testing a probe has been identified and was characterized though AMDE tests. Mouse liver microsomes are created through broken up endoplasmic reticulum from mouse liver. These liver microsomes contain many drug metabolizing enzymes, such as Cytochome P-450s and flavin-containing monooxygenases. […] NIH Chemical Genomics Center [NCGC] NIH Molecular Libraries Probe Production Centers Network [MLPCN] MLPCN Grant: MH086442-01 Assay Submitter (PI): Wei Zheng
5uM of compound is incubated with mouse liver microsome in the presence of NADPH; the reference compounds are verapamil and warfarin. Compounds are incubated and samples are analyzed with LC-MS/MS.

percent remaining: 58%
Compound: S=C(NCCCc1cnc[nH]1)NCCCN(Cc1ccc(Cl)c(Cl)c1)c1ccc(Br)cn1
